The results in this text go back to patent US20110280831A1, “COMBINATIONS COMPRISING METHOTREXATE AND DHODH INHIBITORS” (priority 2009, published 2011).

The target of the test is human DHODH (Homo sapiens, UniProt Q02127). Briefly: Inhibition of human DHODH activity assay (DCIP chromogen reduction). The test is classed as biochemical. Particulars: enzyme extracts, 10 min at room temperature, absorbance at 600 nm, duplicate; read-out: hDHODH IC50. How it is done: DHODH activity and its inhibition were studied using a chromogen reduction assay with DCIP (2,6-dichlorophenol-indophenol).
Chain of human DHODH (Q02127 whole entry): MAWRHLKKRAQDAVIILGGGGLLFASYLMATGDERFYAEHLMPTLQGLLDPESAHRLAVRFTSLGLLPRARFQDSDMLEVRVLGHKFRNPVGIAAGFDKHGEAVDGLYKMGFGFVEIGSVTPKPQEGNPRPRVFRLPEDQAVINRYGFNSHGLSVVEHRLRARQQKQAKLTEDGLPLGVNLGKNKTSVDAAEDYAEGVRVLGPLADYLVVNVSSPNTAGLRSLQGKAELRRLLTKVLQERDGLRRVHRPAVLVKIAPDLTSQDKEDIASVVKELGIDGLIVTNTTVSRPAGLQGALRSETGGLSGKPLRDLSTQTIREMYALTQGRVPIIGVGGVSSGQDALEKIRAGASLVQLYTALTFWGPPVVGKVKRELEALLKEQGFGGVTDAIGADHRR
Enzyme extracts (8 μl, ˜1.5 μg of human protein) were incubated in 96-well plates. The assay mixture (200 μl) contained 200 μM CoQD, 100 μM L-DHO, 120 μM DCIP in the assay buffer (100 mM HEPES pH 8.0, 150 mM NaCl, 10% Glicerol, 0.05% Triton X-100) and 2 μl of test compound. The compounds were dissolved in DMSO at a stock concentration of 1 mM, and tested at different concentrations varying from 10 μM to 1 pM to calculate an IC50 (concentration of inhibitor required for 50% of inhibition).
The reaction was initiated by adding the enzyme and then incubated for 10 min at room temperature before measuring DCIP reduction by counting a decrease in absorbance at 600 nm using standard instrumentation (Spectramax).
All reactions were carried out in duplicate and graphs, determining IC50 values for each compound, were plotted using the ABase software.

Each structure is given as a SMILES string.

In general, IC50 refers to the concentration that gives 50% inhibition. `O=C(O)c1cc(C2CC2)ccc1Nc1cnc(-c2ccccc2)nc1` [Compound 1, 5-cyclopropyl-2-(2-phenylpyrimidin-5-ylamino)benzoic acid]: the IC50 worked out at 105 nM. As for `Cc1ccc(Nc2ccc(-c3cccc(C(F)(F)F)c3)nc2)c(C(=O)O)c1` [Compound 4, 5-Methyl-2-(6-(3-(trifluoromethyl)phenyl)pyridin-3-ylamino)benzoic acid], the IC50 worked out at 98 nM. The figure for `O=C(O)c1cc(C2CC2)ccc1Nc1cnc(-c2c(F)cc(O)cc2F)nc1` [Compound 6, 5-cyclopropyl-2-(2-(2,6-difluoro-4-hydroxyphenyl)pyrimidin-5-ylamino)benzoic acid] is 57 nM. As for `COc1ncc(Nc2ccc(C3CC3)cc2C(=O)O)cc1-c1ccccc1` [Compound 7, 5-Cyclopropyl-2-(6-methoxy-5-phenylpyridin-3-ylamino)benzoic acid], the IC50 worked out at 49 nM. As for `Cc1ccc(Nc2cnc(-c3ccccc3)c(F)c2)c(C(=O)O)c1` [Compound 8, 2-(5-Fluoro-6-phenylpyridin-3-ylamino)-5-methylbenzoic acid], the IC50 worked out at 18 nM. The result for `O=C(O)c1cc(C2CC2)ccc1Nc1cnc(-c2ccccc2C2CC2)nc1` [Compound 14, 5-Cyclopropyl-2-(2-(2-cyclopropylphenyl)pyrimidin-5-ylamino)benzoic acid] reads 57 nM. The result for `O=C(O)c1cc(C2CC2)ccc1Nc1cncc(-c2ccccc2)c1` [Compound 15, 5-cyclopropyl-2-(5-phenylpyridin-3-ylamino)benzoic acid] reads 113 nM; that for `Cc1ccc(Nc2cc(Cl)cnc2-c2ccccc2)c(C(=O)O)c1` [Compound 18, 2-(5-Chloro-2-phenylpyridin-3-ylamino)-5-methylbenzoic acid], 62 nM; that for `O=C(O)c1cc(C2CC2)ccc1Nc1cnc(-c2ccccc2)c(-c2ccccc2)c1` [Compound 19, 5-Cyclopropyl-2-(5,6-diphenylpyridin-3-ylamino)benzoic acid], 10 nM. The figure for `O=C(O)c1cc(C2CC2)ccc1Nc1cnc(-c2cccc(OC3CC3)c2)nc1` [Compound 22, 2-(2-(3-Cyclopropoxyphenyl)pyrimidin-5-ylamino)-5-cyclopropylbenzoic acid] is 114 nM; for `O=C(O)c1cc(C2CC2)ccc1Nc1cnc(C2CC2)c(-c2ccccc2)c1` [Compound 25, 5-cyclopropyl-2-(6-cyclopropyl-5-phenylpyridin-3-ylamino)benzoic acid] it is 28 nM.

On to `Cc1ccc(Nc2cnc(N3CCCCC3)c(C)c2)c(C(=O)O)c1` [Compound 30, 5-Methyl-2-(5-methyl-6-(piperidin-1-yl)pyridin-3-ylamino)benzoic acid], for which the IC50 was found to be 41 nM.

Take `Cc1ccc(Nc2cnc(N3CCCCCC3)c(C)c2)c(C(=O)O)c1` [Compound 31, 2-(6-(Azepan-1-yl)-5-methylpyridin-3-ylamino)-5-methylbenzoic acid]: the IC50 was 119 nM. The figure for `Cc1ccc(Nc2ccc(-c3ccncc3Cl)nc2)c(C(=O)O)c1` [Compound 34, 2-(3′-chloro-2,4′-bipyridin-5-ylamino)-5-methylbenzoic acid] is 109 nM; for `CCOc1cccc(-c2ccc(Nc3ccc(C)cc3C(=O)O)cn2)c1` [Compound 41, 2-(6-(3-Ethoxyphenyl)pyridin-3-ylamino)-5-methylbenzoic acid] it is 190 nM. The result for `CCOc1cccc(-c2ncc(Nc3ccc(C)cc3C(=O)O)cc2C)c1` [Compound 42, 2-(6-(3-Ethoxyphenyl)-5-methylpyridin-3-ylamino)-5-methylbenzoic acid] reads 30 nM; that for `CCOc1cccc(-c2cc(C)c(Nc3ccc(C)cc3C(=O)O)cn2)c1` [Compound 44, 2-(6-(3-Ethoxyphenyl)-4-methylpyridin-3-ylamino)-5-methylbenzoic acid], 78 nM; that for `COc1cccc(-c2ncc(Nc3ccc(C(F)(F)F)cc3C(=O)O)cc2C)c1` [Compound 50, 2-(6-(3-Methoxyphenyl)-5-methylpyridin-3-ylamino)-5-(trifluoromethyl)benzoic acid], 138 nM. On to `COc1cccc(-c2ncc(Nc3ccc(C)cc3C(=O)O)cc2C)c1` [Compound 51, 2-(6-(3-Methoxyphenyl)-5-methylpyridin-3-ylamino)-5-methylbenzoic acid], for which the IC50 was found to be 21 nM.

As to `CCOc1ccc(F)c(-c2ccc(Nc3ccc(C)cc3C(=O)O)cn2)c1` [Compound 54, 2-(6-(5-Ethoxy-2-fluorophenyl)pyridin-3-ylamino)-5-methylbenzoic acid], the IC50 stood at 19 nM. `Cc1ccc(Nc2ccc(-c3ccccc3F)nc2)c(C(=O)O)c1` [Compound 57, 2-(6-(2-Fluorophenyl)pyridin-3-ylamino)-5-methylbenzoic acid]: the IC50 was 91 nM. In the case of `Cc1ccc(Nc2ccc(-c3cc(OC(C)C)ccc3F)nc2)c(C(=O)O)c1` [Compound 66, 2-(6-(2-Fluoro-5-isopropoxyphenyl)pyridin-3-ylamino)-5-methylbenzoic acid], the IC50 amounted to 28 nM.

Turning to `Cc1ccc(Nc2cnc(-c3cccc(OC(C)C)c3)c(C)c2)c(C(=O)O)c1` [Compound 67, 2-(6-(3-Isopropoxyphenyl)-5-methylpyridin-3-ylamino)-5-methylbenzoic acid], the IC50 was 11 nM. For the compound `Cc1ccc(Nc2cnc(-c3cccc(C(N)=O)c3)c(C)c2)c(C(=O)O)c1` [Compound 73, 2-(6-(3-Carbamoylphenyl)-5-methylpyridin-3-ylamino)-5-methylbenzoic acid], the IC50 was determined as 190 nM. Regarding `COc1ccc(F)c(-c2cc(C)c(Nc3ccc(C)cc3C(=O)O)cn2)c1` [Compound 75, 2-(6-(2-Fluoro-5-methoxyphenyl)-4-methylpyridin-3-ylamino)-5-methylbenzoic acid], the IC50 was determined as 97 nM. Consider `COc1cccc(-c2ncc(Nc3ccc(C)cc3C(=O)O)cc2C(F)(F)F)c1` [Compound 77, 2-(6-(3-Methoxyphenyl)-5-(trifluoromethyl)pyridin-3-ylamino)-5-methylbenzoic acid], for which the IC50 came to 12 nM. Consider `Cc1ccc(Nc2cnc(-c3cccc(C(=O)N(C)C)c3)c(C)c2)c(C(=O)O)c1` [Compound 79, 2-(6-(3-(Dimethylcarbamoyl)phenyl)-5-methylpyridin-3-ylamino)-5-methylbenzoic acid], for which the IC50 turned out to be 33 nM. On to `Cc1cc(Nc2ccc(C3CC3)cc2C(=O)O)cnc1-c1cccc(OC(F)(F)F)c1` [Compound 89, 5-Cyclopropyl-2-(5-methyl-6-(3-(trifluoromethoxy)phenyl)pyridin-3-ylamino)benzoic acid], for which the IC50 worked out at 5 nM. Consider `Cc1cc(Nc2ccc(C3CC3)cc2C(=O)O)cnc1-c1ccccc1` [Compound 91, 5-Cyclopropyl-2-(5-methyl-6-phenylpyridin-3-ylamino)benzoic acid], for which the IC50 was determined as 6 nM. The result for `Cc1ccc(Nc2cnc(-c3ccccc3C(F)(F)F)c(C)c2)c(C(=O)O)c1` [Compound 93, 5-Methyl-2-(5-methyl-6-(2-(trifluoromethyl)phenyl)pyridin-3-ylamino)benzoic acid] reads 20 nM; that for `Cc1ccc(Nc2cnc(-c3cccc(Cl)c3)c(C)c2)c(C(=O)O)c1` [Compound 95, 2-(6-(3-Chlorophenyl)-5-methylpyridin-3-ylamino)-5-methylbenzoic acid], 10 nM.
